The results in this text go back to publication PMC8291587, “Guanidine Derivatives: How Simple Structural Modification of Histamine H3R Antagonists Has Led to the Discovery of Potent Muscarinic M2R/M4R Antagonists” (ACS Chemical Neuroscience, 2021).

Where two headings read alike, the source gives them in different places.

The test system of experiment [1] is electrically stimulated guinea pig ileum. The experiment can be described thus: Decrease of contractility in electrically stimulated guinea pig ileum (-log EC50 determination). The following applies: for EC50: Cavia porcellus, read-out: Decrease of contractility (-logEC50 ± sem) (converted); for intrinsic activity (maximal response as fraction of maximal response of the system): from concentration–response curves. On the procedure: A standard ex vivo assay based on the relaxant response of histamine H3R agonists to electrically driven guinea pig ileum was used to test the influence of ADS compounds on the reduction of electrically evoked tissue contraction. […] The −log EC50 value for RAMH and ADS compounds were evaluated. […] Following this, we decided to evaluate the ADS series as potential M2R/M3R ligands on the isolated guinea pig ileum.
Male guinea pigs, weighing 300–400 g, were euthanized by a blow to the neck. A 20–30 cm length of the distal ileum, apart from the terminal 5 cm, was rapidly removed and placed in phosphate buffer at room temperature (pH 7.4) containing (mM) NaCl (136.9), KCl (2.6), KH2PO4 (1.47), Na2HPO4 (9.58), and indomethacin (1 × 10^–6 mol/L)). The intraluminal content was rinsed, and the isolated intestine was cut into 1.5–2 cm segments. The preparations were mounted between two platinum electrodes isotonically in a 20 mL organ bath filled with Krebs buffer: composition (mM) NaCl (118), KCl (5.6), MgSO4 (1.18), CaCl2 (2.5), NaH2PO4·H2O (1.28), NaHCO3 (25), glucose (5.55), and indomethacin (3 × 10^–7 mol/L). The solution was continuously bubbled with a 95% O2:5% CO2 mixture and maintained at 37 °C under a constant load of 1.0 g (Hugo Sachs Hebel–Messvorsatz (Tl-2)/HF-modem; Hugo Sachs Elektronik, Hugstetten, Germany) connected to a pen recorder (Kipp & Zonen BD41, Delft, Holland). During an equilibration period of 60 min, Krebs buffer was changed every 10 min. Following this, the preparations were continuously stimulated at 15–20 V, at a frequency of 0.1 Hz for a duration of 0.5 ms, with rectangular-wave electrical pulses (Grass Stimulator S-88; Grass Instruments Co., Quincy, Massachusetts, USA). […] Cumulative concentration–response curve was determined to RAMH or tested agonist (10 nM to 10 mM) at increasing concentrations spaced by 3- or 3.3-fold. The agonist potency is expressed as pD2 value (−log EC50) ± sem.

Another experiment addresses T1, hM5R (Homo sapiens, UniProt P08912).
T1 construct: host or cells: CHO cells, stably transfected; crude membranes
T1 sequence (P08912 1-532): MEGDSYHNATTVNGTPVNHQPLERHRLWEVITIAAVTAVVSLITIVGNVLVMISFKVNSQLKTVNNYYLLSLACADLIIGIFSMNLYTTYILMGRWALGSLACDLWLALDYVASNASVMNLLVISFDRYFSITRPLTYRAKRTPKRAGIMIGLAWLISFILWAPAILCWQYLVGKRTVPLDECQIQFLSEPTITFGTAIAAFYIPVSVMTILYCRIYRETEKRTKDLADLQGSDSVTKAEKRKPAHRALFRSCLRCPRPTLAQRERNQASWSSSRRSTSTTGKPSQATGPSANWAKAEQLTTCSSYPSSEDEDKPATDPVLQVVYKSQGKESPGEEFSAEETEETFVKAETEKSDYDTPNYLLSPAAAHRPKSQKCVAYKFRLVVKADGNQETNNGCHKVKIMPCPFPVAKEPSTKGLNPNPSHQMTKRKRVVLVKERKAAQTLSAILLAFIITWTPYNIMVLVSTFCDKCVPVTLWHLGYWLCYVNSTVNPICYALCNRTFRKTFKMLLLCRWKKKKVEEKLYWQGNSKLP
Nature of the experiment: hM5R radioligand binding ([3H]NMS, CHO cell membranes). As for the experimental part:
To clearly explain the obtained outcome, we engaged the radioligand binding experiment. The hM1–hM5 radioligand binding experiments were performed in the membrane fractions of Chinese hamster ovary cells (CHO) stably expressing human variants of muscarinic receptors. N-[^3H]Methylscopolamine was used as the radiolabeled ligand.[39] Three compounds were selected from ex vivo screening on guinea pig ileum. […] This compound is also not completely selective for the remaining muscarinic receptor subtypes with −log Ki values over 6. […] It is also a potent muscarinic M1R antagonist, and the M1R/M2R selectivity ratio is <10. It is worth noting that such nonspecific anticholinergics are often associated with neuropsychiatric and cognitive disturbances and that nonselective muscarinic M1R/M2R antagonists, such as scopolamine, can produce cognitive deficits. Further structural modifications of ADS10227 should be used to increase selectivity toward the M2R, as these may present fewer potential side effects associated with the activation of the phospholipase C signaling pathway.
The culture was derived from CHO cells stably transfected with the genes of human variants of muscarinic receptors. These were purchased from Missouri S&T cDNA Resource Center (Rolla, MO, USA). Cell cultures and crude membranes were prepared as described previously.[45] […]
All radioligand binding experiments were optimized and carried out according to general guidelines.[39] […] N-Methylscopolamine binding was measured directly in saturation experiments using six concentrations (30–1000 pM) of [^3H]NMS during incubation for 1 h (M2R), 3 h (M1R, M3R, and M4R), or 5 h (M5R). For calculations of the equilibrium dissociation constant (KD), concentrations of free [^3H]NMS were calculated by subtraction of bound radioactivity from total radioactivity in the sample and fitting eq 1 (Experimental Data analysis section). The binding of the tested ligands was determined in competition experiments with 100 pM [^3H]NMS. […] Nonspecific binding was determined in the presence of 1 μM unlabeled atropine. […]

[2] abbreviates: electrically stimulated guinea pig ileum.
[3] abbreviates: read-out: hM5R -log(Ki) ± sem (converted).

`N=C(N)N(CCCCN1CCN(CCCCCCCOc2ccccc2)CC1)Cc1ccccc1` [ADS1017]: in experiment [1], the EC50 is 661 nM. This molecule gave a Ki at hM5R (hM5R -log(Ki) ± sem) of 468 nM.
Consider `N=C(N)N(CCCCN1CCN(C[C@H]2CC[C@@H](COc3ccccc3)CC2)CC1)Cc1ccccc1` [ADS10227, 1-{4-{4-{[4-(phenoxymethyl)cyclohexyl]methyl}piperazin-1-yl}but-1-yl}-1-(benzyl)guanidine], for which, in experiment [1] (setting [2]), the EC50 was 132 nM and the “intrinsic activity (maximal response as fraction of maximal response of the system)” value was 0.97. Besides, the Ki at hM5R (setting [3]) is 195 nM.
As to `[H]/N=C(/N)N(CCCCN1CCN(CC2CCC(COc3ccccc3)CC2)CC1)Cc1ccc(C(F)(F)F)cc1` (centres unmarked) [ADS10239], in experiment [1] (setting [2]), the EC50 was 240 nM and the “intrinsic activity (maximal response as fraction of maximal response of the system)” value is 0.98. For the same molecule, at hM5R (setting [3]), the inhibitory constant (Ki) was 832 nM.

As usually defined, the Ki is a dissociation constant, usually derived from enzyme kinetics or from competition with a known ligand.
